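96-well plates; 48 h exposure; 5 concentrations. Endpoints by linear interpolation between flanking doses. Not reached: highest tested concentration assigned. Here, GI50 denotes the concentration required for 50% inhibition of growth.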 Calls of active or inactive are those of the source. Rule as the data show it: active = GI50 up to about 1.1 µM and inactive = higher.
Key:
Assay in all cases: growth of human tumour cells (NCI), 48 h
[1] = tested on: CAKI-1
[2] = tested on: NCI/ADR-RES
[3] = tested on: OVCAR-5
[4] = tested on: SK-OV-3
[5] = tested on: SNB-75
[6] = tested on: COLO 205
[7] = tested on: OVCAR-4
[8] = tested on: KM12
[9] = tested on: IGROV-1
[10] = tested on: U-251
[11] = tested on: HOP-92
[12] = tested on: MOLT-4
[13] = tested on: NCI-H226
[14] = tested on: SW-620
[15] = tested on: OVCAR-8
[16] = tested on: PC-3
[17] = tested on: T47D
[18] = tested on: CCRF-CEM
[19] = tested on: RPMI-8226
[20] = tested on: Malme-3M

Row | SMILES | GI50 [1] | GI50 [2] | GI50 [3] | GI50 [4] | GI50 [5] | GI50 [6] | GI50 [7] | GI50 [8] | GI50 [9] | GI50 [10] | GI50 [11] | GI50 [12] | GI50 [13] | GI50 [14] | GI50 [15] | GI50 [16] | GI50 [17] | GI50 [18] | GI50 [19] | GI50 [20]
1 | Cc1c2c(n(Cc3ccccn3)c1C)NN=C(C#N)S2(=O)=O | > 100 µM (inactive) | > 100 µM (inactive) | > 100 µM (inactive) | > 100 µM (inactive) | > 100 µM (inactive) | > 100 µM (inactive) | > 100 µM (inactive) | > 100 µM (inactive) | > 100 µM (inactive) | > 100 µM (inactive) | > 100 µM (inactive) | > 100 µM (inactive) | > 100 µM (inactive) | > 100 µM (inactive) | > 100 µM (inactive) | > 100 µM (inactive) | > 100 µM (inactive) | – | – | –
2 | O=c1[nH]c2c(C(F)(F)F)c(Cl)c(-c3ccccc3)nc2o1 | 34.4 µM (inactive) | 16.6 µM (inactive) | 11.8 µM (inactive) | 23.6 µM (inactive) | – | 14.9 µM (inactive) | 19.6 µM (inactive) | 26.7 µM (inactive) | 41.8 µM (inactive) | 19.3 µM (inactive) | 9.33 µM (inactive) | 13.7 µM (inactive) | 30.3 µM (inactive) | 33.8 µM (inactive) | 31.3 µM (inactive) | 23.2 µM (inactive) | 20.2 µM (inactive) | 10 µM (inactive) | – | –
3 | CCOC(=O)c1nc2ccccc2nc1Oc1ccc(C#N)cc1 | – | > 100 µM (inactive) | > 100 µM (inactive) | > 100 µM (inactive) | – | > 100 µM (inactive) | > 100 µM (inactive) | > 100 µM (inactive) | > 100 µM (inactive) | > 100 µM (inactive) | 96.6 µM (inactive) | > 100 µM (inactive) | > 100 µM (inactive) | > 100 µM (inactive) | > 100 µM (inactive) | > 100 µM (inactive) | > 100 µM (inactive) | > 100 µM (inactive) | > 100 µM (inactive) | > 100 µM (inactive)
4 | CCC(C)N1CN(c2ccccc2)C2(CCN(CCCSc3ccc(F)cc3)CC2)C1=O (centres undefined) | 3.45 µM (inactive) | 3.05 µM (inactive) | 2.1 µM (inactive) | 4.92 µM (inactive) | 11.1 µM (inactive) | 1.72 µM (inactive) | – | 3.92 µM (inactive) | 4.31 µM (inactive) | 3.72 µM (inactive) | – | 3 µM (inactive) | 4.34 µM (inactive) | 4.06 µM (inactive) | 6.17 µM (inactive) | 6.35 µM (inactive) | 2.99 µM (inactive) | 2.44 µM (inactive) | 2.31 µM (inactive) | 4.48 µM (inactive)
5 | COc1nc2c(c(=O)n1C)N[C@@H]1[C@@H](O)[C@H](O)CO[C@@H]1N2 | > 100 µM (inactive) | > 100 µM (inactive) | > 100 µM (inactive) | > 100 µM (inactive) | > 100 µM (inactive) | > 100 µM (inactive) | > 100 µM (inactive) | > 100 µM (inactive) | > 100 µM (inactive) | > 100 µM (inactive) | – | > 100 µM (inactive) | > 100 µM (inactive) | > 100 µM (inactive) | > 100 µM (inactive) | > 100 µM (inactive) | > 100 µM (inactive) | > 100 µM (inactive) | > 100 µM (inactive) | 39.4 µM (inactive)
6 | O=C(/C=C/c1cc2ccccc2o1)N1CCN(c2ccccn2)CC1 | > 100 µM (inactive) | 60.7 µM (inactive) | > 100 µM (inactive) | > 100 µM (inactive) | – | 85.7 µM (inactive) | 49.8 µM (inactive) | 87.5 µM (inactive) | 84.1 µM (inactive) | > 100 µM (inactive) | 60.5 µM (inactive) | 19 µM (inactive) | – | > 100 µM (inactive) | > 100 µM (inactive) | 50.4 µM (inactive) | 44.3 µM (inactive) | > 100 µM (inactive) | > 100 µM (inactive) | 79.6 µM (inactive)
7 | O=[N+]([O-])/C=C\c1c[nH]c2ccc(OCc3ccccc3)cc12 | 20.6 µM (inactive) | 19.3 µM (inactive) | 11.1 µM (inactive) | 17.5 µM (inactive) | – | 3.85 µM (inactive) | – | 2.09 µM (inactive) | 4.15 µM (inactive) | 5.85 µM (inactive) | 3.21 µM (inactive) | 3.6 µM (inactive) | 2.18 µM (inactive) | 2.51 µM (inactive) | 4.27 µM (inactive) | 7.33 µM (inactive) | 2.64 µM (inactive) | 4.26 µM (inactive) | 2.08 µM (inactive) | 11 µM (inactive)
8 | Cc1[nH]c(=O)[nH]c(=O)c1N(CCF)CCCl [FLUORODOPAN] | 181 µM (inactive) | 240 µM (inactive) | 483 µM (inactive) | 536 µM (inactive) | – | 394 µM (inactive) | 353 µM (inactive) | 429 µM (inactive) | 441 µM (inactive) | 369 µM (inactive) | 109 µM (inactive) | – | 560 µM (inactive) | – | – | 363 µM (inactive) | 292 µM (inactive) | 57.4 µM (inactive) | – | 349 µM (inactive)
9 | O=C(CNc1cccc([N+](=O)[O-])c1)Nn1c(-c2ccccc2)nc2ccccc2c1=O | – | 0.282 µM (active) | 1.77 µM (inactive) | 0.573 µM (active) | – | 1.43 µM (inactive) | 2.18 µM (inactive) | 1.18 µM (inactive) | 0.201 µM (active) | 1.05 µM (active) | – | 0.246 µM (active) | 0.2 µM (active) | 0.33 µM (active) | 1.59 µM (inactive) | 0.543 µM (active) | 2.17 µM (inactive) | 0.316 µM (active) | 0.478 µM (active) | 0.973 µM (active)
10 | CC(=O)O[C@@H]1O[Si](C(C)(C)C)(C(C)(C)C)[C@H](C)[C@H]1C | > 100 µM (inactive) | > 100 µM (inactive) | > 100 µM (inactive) | > 100 µM (inactive) | 6.62 µM (inactive) | > 100 µM (inactive) | > 100 µM (inactive) | 30.5 µM (inactive) | 21.1 µM (inactive) | 43.7 µM (inactive) | – | 20.8 µM (inactive) | > 100 µM (inactive) | 40 µM (inactive) | > 100 µM (inactive) | 33 µM (inactive) | > 100 µM (inactive) | 40.6 µM (inactive) | 45.1 µM (inactive) | 7.91 µM (inactive)
11 | Cc1c(/C=N\NC(=S)N(C)CCN(C)C(=S)N/N=C\c2c(C)n(C)n(-c3ccccc3)c2=O)c(=O)n(-c2ccccc2)n1C | > 100 µM (inactive) | > 100 µM (inactive) | > 100 µM (inactive) | > 100 µM (inactive) | 42.6 µM (inactive) | > 100 µM (inactive) | > 100 µM (inactive) | > 100 µM (inactive) | – | > 100 µM (inactive) | > 100 µM (inactive) | > 100 µM (inactive) | > 100 µM (inactive) | > 100 µM (inactive) | – | > 100 µM (inactive) | > 100 µM (inactive) | – | – | 55.7 µM (inactive)
12 | CCOC(=O)c1ccc(/N=C2\Sc3nc4ccccc4n3\C2=N\c2ccc(C(=O)OCC)cc2)cc1 | 23 µM (inactive) | 22.1 µM (inactive) | 60 µM (inactive) | 40.8 µM (inactive) | – | 38.5 µM (inactive) | 24.3 µM (inactive) | 20.1 µM (inactive) | 19.5 µM (inactive) | – | 12.8 µM (inactive) | 9.77 µM (inactive) | 29.2 µM (inactive) | 21.5 µM (inactive) | 29.4 µM (inactive) | 37.7 µM (inactive) | 48.1 µM (inactive) | > 100 µM (inactive) | – | 22.7 µM (inactive)
13 | COc1cc(Br)c(OC)c2c(OC)cc(C)cc12 | – | > 100 µM (inactive) | > 100 µM (inactive) | > 100 µM (inactive) | 14.3 µM (inactive) | > 100 µM (inactive) | – | > 100 µM (inactive) | > 100 µM (inactive) | > 100 µM (inactive) | – | 20 µM (inactive) | > 100 µM (inactive) | > 100 µM (inactive) | > 100 µM (inactive) | 44.6 µM (inactive) | 54.5 µM (inactive) | 42.5 µM (inactive) | 54.5 µM (inactive) | > 100 µM (inactive)
14 | CN(C)C(=O)Oc1ccc(C(=S)Nc2ccccc2)cc1 | > 100 µM (inactive) | 26.4 µM (inactive) | > 100 µM (inactive) | > 100 µM (inactive) | – | 65.2 µM (inactive) | 32.1 µM (inactive) | 49.7 µM (inactive) | 34 µM (inactive) | > 100 µM (inactive) | – | 18.3 µM (inactive) | – | > 100 µM (inactive) | 25.6 µM (inactive) | 96.4 µM (inactive) | 53.6 µM (inactive) | 26.6 µM (inactive) | 64.1 µM (inactive) | 89.3 µM (inactive)
15 | COC[C@H](Cc1ccccc1)/N=C/c1ccccc1 | > 100 µM (inactive) | > 100 µM (inactive) | > 100 µM (inactive) | > 100 µM (inactive) | > 100 µM (inactive) | > 100 µM (inactive) | > 100 µM (inactive) | > 100 µM (inactive) | > 100 µM (inactive) | > 100 µM (inactive) | – | > 100 µM (inactive) | – | > 100 µM (inactive) | > 100 µM (inactive) | > 100 µM (inactive) | > 100 µM (inactive) | > 100 µM (inactive) | > 100 µM (inactive) | > 100 µM (inactive)
16 | COP1(=O)OCc2cnccc2O1 (centres undefined) | > 100 µM (inactive) | > 100 µM (inactive) | > 100 µM (inactive) | > 100 µM (inactive) | > 100 µM (inactive) | > 100 µM (inactive) | > 100 µM (inactive) | > 100 µM (inactive) | > 100 µM (inactive) | > 100 µM (inactive) | – | > 100 µM (inactive) | > 100 µM (inactive) | > 100 µM (inactive) | > 100 µM (inactive) | > 100 µM (inactive) | > 100 µM (inactive) | – | > 100 µM (inactive) | > 100 µM (inactive)

Reference: ChEMBL document CHEMBL1201862, “PubChem BioAssay data set” (2004)
